# Data reported in patent publication US8889704B2 (Array BioPharma Inc., priority 2011, dated 2014).
# Structures can show the parent of a compound that is named as a salt.
# What was measured:
# Assay type in all cases: biochemical
# PIM-1 = PIM-1 (Homo sapiens, UniProt P11309); assay: Enzyme PIM-1 Assay ([33P]ATP incorporation into PIM2tide, filter plate); conditions: averaged IC50; 35 μM ATP, 7.5 μM PIM2tide, 0.25 nM PIM-1, 60 min at 22° C.
# Outline: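 Ten-point, 3-fold dilution series (10 μM top, 2% DMSO final) tested for inhibition of 33P transfer from 35 μM ATP to 7.5 μM PIM2tide by 0.25 nM PIM-1. Reaction 60 min, 22 °C, pH 7.4 MOPS/MgCl2 buffer; phosphocellulose capture, scintillation counting, IC50 where fitted POC equals 50.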
# [1] = biological target: T1, GST-tagged recombinant full-length human Pim-2 (Homo sapiens, UniProt Q9P1W9); assay: PIM-2 Assay (as Example A); conditions: averaged IC50; 4 μM ATP, 1.0 μM PIM2tide, 1.5 nM Pim-2
# T1 construct: GST-tagged recombinant full-length human Pim-2; GST
# T1 sequence (Q9P1W9 whole entry): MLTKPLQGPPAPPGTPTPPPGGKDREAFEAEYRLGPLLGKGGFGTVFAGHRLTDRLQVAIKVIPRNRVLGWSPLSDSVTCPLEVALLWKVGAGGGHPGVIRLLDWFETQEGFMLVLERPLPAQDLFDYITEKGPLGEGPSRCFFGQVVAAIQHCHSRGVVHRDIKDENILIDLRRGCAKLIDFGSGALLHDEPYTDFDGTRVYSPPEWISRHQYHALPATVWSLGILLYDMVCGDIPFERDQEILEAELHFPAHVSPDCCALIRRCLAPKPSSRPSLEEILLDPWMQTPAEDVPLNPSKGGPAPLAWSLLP
# Outline: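 IC50 was derived by 4-parameter logistic fitting of percent-of-control data over a 10-point, 3-fold series (highest 10 μM, 2% DMSO). Reactions held 1.5 nM GST-Pim-2 (full-length, human), 4 μM [γ-33P]ATP and 1.0 μM PIM2tide for 60 min at 22 °C, pH 7.4; 33P-peptide captured on P81 filters.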
# recombinant rat PIM-3 = recombinant rat PIM-3 (Rattus norvegicus, UniProt O70444); assay: PIM-3 Assay (as Example A); conditions: averaged IC50; 30 μM ATP, 3.75 μM PIM2tide, 0.5 nM PIM-3
# Outline: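 33P incorporation from 30 μM [γ-33P]ATP into 3.75 μM PIM2tide by 0.5 nM rat PIM-3, 60 min at 22 °C in pH 7.4 MOPS buffer, read by P81 filter capture and scintillation counting. Compounds tested in 3-fold dilutions up to 10 μM final, 2% DMSO; percent-of-control data fitted by 4-parameter logistic for IC50.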
# Sequence of PIM-1 (P11309 whole entry, species assumed): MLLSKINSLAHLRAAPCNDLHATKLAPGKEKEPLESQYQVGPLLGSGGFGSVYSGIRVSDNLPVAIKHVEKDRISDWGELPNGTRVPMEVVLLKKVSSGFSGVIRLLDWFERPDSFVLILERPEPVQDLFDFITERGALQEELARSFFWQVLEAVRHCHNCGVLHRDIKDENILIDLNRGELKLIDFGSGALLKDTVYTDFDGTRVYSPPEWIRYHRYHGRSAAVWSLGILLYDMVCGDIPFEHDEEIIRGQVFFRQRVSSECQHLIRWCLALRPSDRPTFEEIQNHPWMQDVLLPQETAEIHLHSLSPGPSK
structure (smiles),measurement,setting,value
"COC[C@@H](C)Oc1cccc2ccc(-c3nnc4ccc(C(C)N5CC[C@H](N)C5)cn34)nc12 (stereo partly drawn) [Example 33, (3S)-1-(1-(3-(8-((R)-1-methoxypropan-2-yloxy)quinolin-2-yl)-[1,2,4]triazolo[4,3-a]pyridin-6-yl)ethyl)pyrrolidin-3-amine trihydrochloride]",IC50,PIM-1,1.41 nM
same,IC50,[1],759 nM
same,IC50,recombinant rat PIM-3,5.9 nM
"CC(C)NC(=O)c1ccc2ccc(-c3nnc4ccc([C@@H](N5CC[C@H](N)C5)C(F)(F)F)cn34)nc2c1 [Example 34, 2-(6-((R)-1-((S)-3-aminopyrrolidin-1-yl)-2,2,2-trifluoroethyl)-[1,2,4]triazolo[4,3-a]pyridin-3-yl)-N-isopropylquinoline-7-carboxamide dihydrochloride]",IC50,PIM-1,0.2 nM
same,IC50,[1],41 nM
same,IC50,recombinant rat PIM-3,0.3 nM
"CN(C)C(=O)c1ccc2ccc(-c3nnc4ccc([C@@H](N5CC[C@H](N)C5)C(F)(F)F)cn34)nc2c1 [Example 35, 2-(6-((R)-1-((S)-3-aminopyrrolidin-1-yl)-2,2,2-trifluoroethyl)-[1,2,4]triazolo[4,3-a]pyridin-3-yl)-N,N-dimethylquinoline-7-carboxamide dihydrochloride]",IC50,PIM-1,4.52 nM
same,IC50,[1],> 1000 nM
same,IC50,recombinant rat PIM-3,39 nM
"CN[C@H]1CCN([C@H](c2ccc3nnc(-c4ccc5cccc(OC(C)C)c5n4)n3c2)C(F)(F)F)C1 [Example 36, (S)—N-methyl-1-((R)-2,2,2-trifluoro-1-(3-(8-isopropoxyquinolin-2-yl)-[1,2,4]triazolo[4,3-a]pyridin-6-yl)ethyl)pyrrolidin-3-amine dihydrochloride]",IC50,PIM-1,0.18 nM
same,IC50,[1],32 nM
same,IC50,recombinant rat PIM-3,2 nM
"CCc1cccc2ccc(-c3nnc4ccc([C@@H](N5CC[C@H](N)C5)C(F)(F)F)cn34)nc12 [Example 37, (S)-1-((R)-1-(3-(8-ethylquinolin-2-yl)-[1,2,4]triazolo[4,3-a]pyridin-6-yl)-2,2,2-trifluoroethyl)pyrrolidin-3-amine dihydrochloride]",IC50,PIM-1,0.11 nM
same,IC50,[1],22 nM
same,IC50,recombinant rat PIM-3,0.8 nM
"CCNC(=O)c1ccc2ccc(-c3nnc4ccc([C@@H](N5CC[C@H](N)C5)C(F)(F)F)cn34)nc2c1 [Example 38, 2-(6-((R)-1-((S)-3-aminopyrrolidin-1-yl)-2,2,2-trifluoroethyl)-[1,2,4]triazolo[4,3-a]pyridin-3-yl)-N-ethylquinoline-7-carboxamide dihydrochloride]",IC50,PIM-1,0.23 nM
same,IC50,[1],56 nM
same,IC50,recombinant rat PIM-3,0.5 nM
"N[C@H]1CCN([C@H](c2ccc3nnc(-c4ccc5cccc(C6CC6)c5n4)n3c2)C(F)(F)F)C1 [Example 39, (S)-1-((R)-1-(3-(8-cyclopropylquinolin-2-yl)-[1,2,4]triazolo[4,3-a]pyridin-6-yl)-2,2,2-trifluoroethyl)pyrrolidin-3-amine dihydrochloride]",IC50,PIM-1,0.08 nM
same,IC50,[1],18 nM
same,IC50,recombinant rat PIM-3,1 nM
"N[C@H]1CCN([C@H](c2ccc3nnc(-c4ccc5cccc(OC(F)(F)F)c5n4)n3c2)C(F)(F)F)C1 [Example 40, (S)-1-((R)-2,2,2-trifluoro-1-(3-(8-(trifluoromethoxy)quinolin-2-yl)-[1,2,4]triazolo[4,3-a]pyridin-6-yl)ethyl)pyrrolidin-3-amine dihydrochloride]",IC50,PIM-1,0.21 nM
same,IC50,[1],78 nM
same,IC50,recombinant rat PIM-3,4.7 nM
"CC(C)c1cccc2ccc(-c3nnc4ccc([C@@H](N5CC[C@H](N)C5)C(F)(F)F)cn34)nc12 [Example 41, (S)-1-((R)-2,2,2-trifluoro-1-(3-(8-isopropylquinolin-2-yl)-[1,2,4]triazolo[4,3-a]pyridin-6-yl)ethyl)pyrrolidin-3-amine dihydrochloride]",IC50,PIM-1,0.11 nM
same,IC50,[1],16 nM
same,IC50,recombinant rat PIM-3,2 nM
"CNC(=O)c1ccc2ccc(-c3nnc4ccc([C@@H](N5CC[C@H](N)C5)C(F)(F)F)cn34)nc2c1 [Example 42, 2-(6-((R)-1-((S)-3-aminopyrrolidin-1-yl)-2,2,2-trifluoroethyl)-[1,2,4]triazolo[4,3-a]pyridin-3-yl)-N-methylquinoline-7-carboxamide dihydrochloride]",IC50,PIM-1,0.26 nM
same,IC50,[1],49 nM
same,IC50,recombinant rat PIM-3,0.5 nM
"CN[C@H]1CCN([C@H](c2ccc3nnc(-c4ccc5cccc(OCC6CC6)c5n4)n3c2)C(F)(F)F)C1 [Example 43, (S)-1-((R)-1-(3-(8-(cyclopropylmethoxy)quinolin-2-yl)-[1,2,4]triazolo[4,3-a]pyridin-6-yl)-2,2,2-trifluoroethyl)-N-methylpyrrolidin-3-amine dihydrochloride]",IC50,PIM-1,0.13 nM
same,IC50,[1],65 nM
same,IC50,recombinant rat PIM-3,1.5 nM
"CC(C)C(=O)Nc1ccc2ccc(-c3nnc4ccc(C(N5CC[C@H](N)C5)C(F)(F)F)cn34)nc2c1 (stereo partly drawn) [Example 44, N-(2-(6-(1-((S)-3-aminopyrrolidin-1-yl)-2,2,2-trifluoroethyl)-[1,2,4]triazolo[4,3-a]pyridin-3-yl)quinolin-7-yl)isobutyramide]",IC50,PIM-1,0.13 nM
same,IC50,[1],29 nM
same,IC50,recombinant rat PIM-3,0.2 nM
"CC(C)(C)c1cccc2ccc(-c3nnc4ccc([C@@H](N5CC[C@H](N)C5)C(F)(F)F)cn34)nc12 [Example 45, (S)-1-((R)-1-(3-(8-tert-butylquinolin-2-yl)-[1,2,4]triazolo[4,3-a]pyridin-6-yl)-2,2,2-trifluoroethyl)pyrrolidin-3-amine dihydrochloride]",IC50,PIM-1,0.21 nM
same,IC50,[1],29 nM
same,IC50,recombinant rat PIM-3,0.5 nM
"CC(C)(C)NC(=O)c1ccc2ccc(-c3nnc4ccc([C@@H](N5CC[C@H](N)C5)C(F)(F)F)cn34)nc2c1 [Example 46, 2-(6-((R)-1-((S)-3-aminopyrrolidin-1-yl)-2,2,2-trifluoroethyl)-[1,2,4]triazolo[4,3-a]pyridin-3-yl)-N-tert-butylquinoline-7-carboxamide dihydrochloride]",IC50,PIM-1,0.07 nM
same,IC50,[1],33 nM
same,IC50,recombinant rat PIM-3,0.3 nM
"N[C@@H]1CCN([C@H](c2ccc3nnc(-c4ccc5cccc(C6CC6)c5n4)n3c2)C(F)(F)F)C1 [Example 47, (R)-1-((R)-1-(3-(8-cyclopropylquinolin-2-yl)-[1,2,4]triazolo[4,3-a]pyridin-6-yl)-2,2,2-trifluoroethyl)pyrrolidin-3-amine dihydrochloride]",IC50,PIM-1,0.09 nM
same,IC50,[1],51 nM
same,IC50,recombinant rat PIM-3,3.8 nM
"CC(C)NC(=O)c1ccc2ccc(-c3nnc4ccc([C@H](N5CC[C@H](N)C5)C(F)(F)F)cn34)nc2c1 [Example 48, 2-(6-((S)-1-((S)-3-aminopyrrolidin-1-yl)-2,2,2-trifluoroethyl)-[1,2,4]triazolo[4,3-a]pyridin-3-yl)-N-isopropylquinoline-7-carboxamide dihydrochloride]",IC50,PIM-1,1.41 nM
same,IC50,[1],> 100 nM
same,IC50,recombinant rat PIM-3,1.9 nM
"CC(C)NC(=O)c1ccc2ccc(-c3nnc4ccc([C@@H](N5CC[C@@H](N)C5)C(F)(F)F)cn34)nc2c1 [Example 49, 2-(6-((R)-1-((R)-3-aminopyrrolidin-1-yl)-2,2,2-trifluoroethyl)-[1,2,4]triazolo[4,3-a]pyridin-3-yl)-N-isopropylquinoline-7-carboxamide dihydrochloride]",IC50,PIM-1,0.22 nM
same,IC50,[1],68 nM
same,IC50,recombinant rat PIM-3,0.4 nM
